Results from patent EP1530462B1, “1-PHENYL-2-DIMETHYLAMINOMETHYL CYCLOHEXANE COMPOUNDS USED FOR THE THERAPY OF DEPRESSIVE SYMPTOMS, PAIN, AND INCONTINENCE” (priority 2002, dated 2004).

Tested on: Maus
Test: Tail Suspension Test in the mouse
Assay type: in vivo
Excerpt: Der "Tail Suspension Test" detektiert antidepressive und anxiolytische Aktivität und folgt der Methode von Porsolt et al. (Porsolt R.D., Bertin A., Jalfre M., Behaviourial despair in mice: a primary screening test for antidepressants. Arch. Int. Pharmacodyn. Ther., 229, 327-336, 1977) und Stéru et al. (Stéru L., .Chermat R., Thierry B, Simon P. The Tail Suspension Test: a new method for screening antidepressants in mice. Psychopharmacology, 85, 367-370, 1985). Nagetiere, die man am Schwanz herabhängen läßt, werden schnell immobil. Antidepressiva verringern die Dauer der Immobilität, während Tranquilantien die Dauer der Immobilität verlängern. Das Verhalten der Tiere wurde über 6 Minuten beobachtet, vorzugsweise mit einem computerisierten Gerät (Itemac-TST) entwickelt von Stéru et al. (1985) (s.o.). Mehrere Mäuse wurden parallel untersucht und die Immobilitätsdauer bestimmt. Dieser Parameter ist analog zu dem im "behavioral despair"-Test (Stéru L., Chermat R., Thierry B., Mico J.A., Lenègre A., Stéru M., Simon P. Porsolt R.D., The automated Tail Suspension Test: a computerized device which differentiates psychotropic drugs. Prog. Neuropsychopharmacol. Exp. Psychiatry, 11, 659-671, 1987) verwendeten. 10-20 Mäuse wurden pro Gruppe untersucht. […]. In diesem Verhaltensmodell führen Antidepressiva wie auch in anderen Verhaltensmodellen zu einer Verkürzung der Immobilitätsphase, während Opioide wie Morphin die Immobilitätsphase verlängern. Beim Vorhandensein beider Wirkkomponenten überlagern sich beide Effekte, so daß nur noch eine geringe Motilitätsveränderung resultiert. Das wurde dadurch aufgehoben, daß die Opiatkomponente durch Vorbehandlung mit Naloxon weggeblockt wurde. Nach der Naloxonvorbehandlung trat die stimulierende Wirkung von (1R,2R)-3-(2-Dimethylaminomethyl-cyclohexyl)-phenol, die ohne Vorbehandlung nur gering war, deutlich in Erscheinung. Darum ist die Substanz, insbesondere in Kombination mit einer Schmerztherapie sehr geeignet. Die Ergebnisse dieser Untersuchungen zusammen mit Referenzsubstanzen sind in der Tabelle 2 zusammengefaßt. Tabelle 2: Wirkung von (1R,2R)-3-(2-Dimethylaminomethyl-cyclohexyl)-phenol, Imipramin und Morphin in "Tail Suspension" Test an der Maus (10 - 20 Tiere/Gruppe)

[1] = 31,6 mg/kg i.p., 30 min before test

For `CN(C)CCCN1c2ccccc2CCc2ccccc21` [Imipramin, reference compound], the “Imobilitätsdauer % Änderung gegenüber der Lösungsmittelkontrolle” value [1] was -61%.
With `C=CCN1CC[C@]23c4c5ccc(O)c4O[C@H]2C(=O)CC[C@@]3(O)[C@H]1C5` [Naloxon, reference compound] the “Imobilitätsdauer % Änderung gegenüber der Lösungsmittelkontrolle” value (1,0 mg/kg i.v. alone) was -15%.
For `CN(C)C[C@@H]1CCCC[C@H]1c1cccc(O)c1` [(1R,2R)-3-(2-Dimethylaminomethyl-cyclohexyl)-phenol], the “Imobilitätsdauer % Änderung gegenüber der Lösungsmittelkontrolle” value (4,64 mg/kg i.p., 30 min before test) was “+6%”, the “Imobilitätsdauer % Änderung gegenüber der Lösungsmittelkontrolle” value (10,0 mg/kg i.p., 30 min before test) was “+12%” and the “Imobilitätsdauer % Änderung gegenüber der Lösungsmittelkontrolle” value (21,5 mg/kg i.p. + 1,0 mg/kg i.v. Naloxon (pretreatment)) was -90%. For the same molecule, the “Imobilitätsdauer % Änderung gegenüber der Lösungsmittelkontrolle” value (21,5 mg/kg i.p., 30 min before test) was “+9%”, the “Imobilitätsdauer % Änderung gegenüber der Lösungsmittelkontrolle” value (31,6 mg/kg i.p. + 1,0 mg/kg i.v. Naloxon (pretreatment)) was -85% and the “Imobilitätsdauer % Änderung gegenüber der Lösungsmittelkontrolle” value [1] was -13%.
